US7622469B2, “2,4-diamino-1,3,5-triazine derivatives” (Hamari Chemicals, Ltd., priority 2002, dated 2009)
≈ marks a conversion by molar mass, not a printed value.

What was measured:
Experiment in all cases: Antibacterial activity test (MIC)
Conditions in all cases: Mueller-Hinton Broth, 37° C., 20 to 24 hours
E. coli NIHJ JC-2 = type: cell-based
Description: (§1) Regarding compounds obtained in respective Working Examples, in order to investigate antibacterial activity, minimal inhibitory concentration (MIC) was determined according to a standard method of Japanese Society of Chemotherapy.
(§2) As a test bacterium, nine kinds of S. aureus 209PJC, MRSA 97-115, MRSA KM 97-53, MRSA KM97-108, VRE 49, E. coli NIHJ JC-2, P. aeruginosa PAO-1, P. aeruginosa No. 12, P. aeruginosa KM97-5 were used and, as a medium, Mueller-Hinton Broth (DIFCO) was used. One platinum loop of a test bacterium was inoculated into 20 ml of a medium, and static culture was carried out at 37° C. for 16 to 20 hours, and then each bacterium species was diluted with a sterilized physiological saline to 10^5/ml, which was used as a test bacterium solution.
(§3) Then, each compound was dissolved in methanol, subjected to ½ stepwise dilution with a medium to prepare a medium for measuring sensitivity, and each 2 ml was dispensed into a test tube. A compound concentration in a medium was adjusted to 100 μg/ml and its 2^n-fold (n=−10 to 1).
(§4) Numerical values in Tables represent MIC expressed in μg/ml unit.

P. aeruginosa PAO-1 = type: cell-based
Description: as §1, §2, §3, §4

S. aureus 209PJC = type: cell-based
Description: as §1, §2, §3, §4

MRSA 97-115 = type: cell-based, methicillin-resistant Staphylococcus aureus
Description: as §1, §2, §3, §4

SMILES | minimal inhibitory concentration (MIC) (E. coli NIHJ JC-2) | minimal inhibitory concentration (MIC) (P. aeruginosa PAO-1) | minimal inhibitory concentration (MIC) (S. aureus 209PJC) | minimal inhibitory concentration (MIC) (MRSA 97-115)
CCCCCCCCCCC1N=C(N)N=C(N)N1c1ccc(F)cc1F.Cl (stereo not drawn) [compound 33] | 25 µg/mL | 50 µg/mL | 1.6 µg/mL | 3.1 µg/mL
CCCCCCCCCCCC1(C)N=C(N)N=C(N)N1c1ccc(Cl)cc1.Cl (racemic) [compound 45] | >100 µg/mL | >100 µg/mL | 0.4 µg/mL | 0.4 µg/mL
CCCCCCCCCCCC1(C)N=C(N)NC(NCc2ccccc2)=N1.Cl (racemic) [compound 46] | 12.5 µg/mL | 25 µg/mL | 0.4 µg/mL | 0.4 µg/mL
CCCCCCCCCCCNC1=NC(C)(C)N=C(NCc2ccc(O)cc2)N1.Cl [compound 9] | 100 µg/mL | >100 µg/mL | 0.4 µg/mL | 1.6 µg/mL
CCCCCCCCC1N=C(N)N=C(N)N1c1ccc(C(C)(C)C)cc1.Cl (stereo not drawn) [compound 21] | 25 µg/mL | 50 µg/mL | 1.5 µg/mL | 3.1 µg/mL
CCCCCCCCCCNC1=NCN=C(NCCc2ccc(OC)cc2)N1.Cl [compound 10] |  | 26 µg/mL | 0.4 µg/mL | 6.4 µg/mL
CCCCCCCCC1N=C(N)NC(Nc2cc(C(C)(C)C)ccc2OC)=N1 (stereo not drawn) [compound 25] |  |  | 1.6 µg/mL (≈ 4.13 µM) | 1.6 µg/mL (≈ 4.13 µM)
CCCCCCCCCCCC1N=C(N)N=C(N)N1c1ccc(F)cc1F.Cl (racemic) [compound 35] | 25 µg/mL | 25 µg/mL | 0.8 µg/mL | 3.1 µg/mL
CCCCCCCCC1N=C(N)N=C(N)N1c1ccc(OC(F)(F)F)cc1.Cl (stereo not drawn) [compound 26] | 50 µg/mL | 50 µg/mL | 3.1 µg/mL | 6.3 µg/mL
CCCCCCCCNC1=NC(C)(C)N=C(NCc2ccc(Cl)c(Cl)c2)N1.Cl [12(1)] | 25 µg/mL | 25 µg/mL | 0.4 µg/mL | 0.8 µg/mL
CCCCCCCCCCCC1N=C(N)NC(NCc2ccc(C(F)(F)F)cc2)=N1.Cl (stereo not drawn) [compound 19] | 50 µg/mL | 100 µg/mL | 0.4 µg/mL | 3.1 µg/mL
CCCCCCCCC1N=C(N)NC(Nc2ccc(OC(F)(F)F)cc2)=N1.Cl (stereo not drawn) [compound 27] | 25 µg/mL | >100 µg/mL | 1.6 µg/mL | 1.6 µg/mL
CCCCCCCCC1N=C(N)NC(NCc2ccc(C(F)(F)F)cc2)=N1.Cl (stereo not drawn) [compound 17] | 12.5 µg/mL | 25 µg/mL | 0.8 µg/mL | 1.6 µg/mL
CCCCCCCCCCC1N=C(N)NC(Nc2ccc(F)c(F)c2F)=N1.Cl (stereo not drawn) [compound 32] | 25 µg/mL | 100 µg/mL | 0.8 µg/mL | 1.6 µg/mL
CCCCCCCCCCCCC1N=C(N)N=C(N)N1CCc1ccc(OC)cc1.Cl (racemic) [15(2)] | 50 µg/mL | 50 µg/mL | 0.4 µg/mL | 1.6 µg/mL
CCCCCCCCCCNC1=NC(C)(C)N=C(NCc2ccc(OC)cc2)N1.Cl [Example 1] | 12.5 µg/mL | 25 µg/mL | 0.4 µg/mL | 0.4 µg/mL
CCCCCCCCCCC1N=C(N)NC(Nc2ccc(F)cc2F)=N1 (stereo not drawn) [compound 34] | 50 µg/mL (≈ 137 µM) | 100 µg/mL (≈ 274 µM) | 1.6 µg/mL (≈ 4.38 µM) | 1.6 µg/mL (≈ 4.38 µM)
CCCCCCCCCC1N=C(N)NC(Nc2ccc(OC(F)(F)F)cc2)=N1.Cl (stereo not drawn) [compound 29] | >100 µg/mL | >100 µg/mL | 0.8 µg/mL | 1.6 µg/mL
CCCCCCCCCCNC1=NC(C)(C)N=C(NCc2ccc(OC)c(OC)c2)N1.Cl [compound 3] | 25 µg/mL |  | 1.6 µg/mL | 1.6 µg/mL
CCCCCCCCCNC1=NC(C)(C)N=C(NCCc2ccc(OC)cc2)N1.Cl [compound 5] |  |  | 0.5 µg/mL | 0.9 µg/mL
CC(=O)O.CCCCCCCCCCNC1=NC(C)(C)N=C(NCc2ccccc2)N1 [compound 50] |  | 25 µg/mL | 0.4 µg/mL | 0.4 µg/mL

Results, then the compound that gave them:

minimal inhibitory concentration (MIC) (E. coli NIHJ JC-2) | minimal inhibitory concentration (MIC) (P. aeruginosa PAO-1) | minimal inhibitory concentration (MIC) (S. aureus 209PJC) | minimal inhibitory concentration (MIC) (MRSA 97-115) | SMILES
25 µg/mL | 50 µg/mL | 0.8 µg/mL | 1.6 µg/mL | CCCCCCCCNC1=NC(C)(C)N=C(NCCCCCC)N1.O=C(O)C(O)C(O)C(O)C(O)CO [compound 76]
12.5 µg/mL | 25 µg/mL | 0.8 µg/mL | 1.6 µg/mL | CC(=O)O.CCCCCCCCNC1=NC(C)(C)N=C(NCc2ccccc2)N1 [compound 52]
25 µg/mL | 25 µg/mL | 0.8 µg/mL | 1.6 µg/mL | CC(=O)O.CCCCCCCNC1=NC(C)(C)N=C(NCCCCCC)N1 [compound 70]
25 µg/mL | 50 µg/mL | 0.8 µg/mL | 3.1 µg/mL | CCCCCCCCCCCCNC1=NC(C)(C)N=C(N)N1.O=[N+]([O-])O [compound 75]
100 µg/mL | 100 µg/mL | 6.3 µg/mL | 6.3 µg/mL | CCCCCCCCNC1=NC(C)(C)N(c2cccc3ccccc23)C(N)=N1.Cl [compound 63]
12.5 µg/mL | 50 µg/mL | 0.4 µg/mL | 0.8 µg/mL | CCCCCCCCCCNC1=NC(C)(C)N=C(NCCc2ccccc2)N1.O=C(O)CC(=O)O [compound 55]
12.5 µg/mL | 50 µg/mL | 0.8 µg/mL | 1.6 µg/mL | CCCCCCCCNC1=NC(C)(C)N(c2cnc3ccccc3c2)C(N)=N1.Cl.Cl [compound 81]
50 µg/mL | 100 µg/mL | 1.6 µg/mL | 3.1 µg/mL | CCCCCCCNC1=NC(CC)(CC)N=C(NCc2ccccc2)N1.Cl [compound 53]
>100 µg/mL | >100 µg/mL | 6.3 µg/mL | 6.3 µg/mL | CCCCCCCCCNC1=NC(C)(C)N(c2ccccc2)C(N)=N1.Cl [compound 61]
25 µg/mL | 50 µg/mL | 0.8 µg/mL | 1.6 µg/mL | CC(=O)O.CCCCCCCNC1=NC(C)(C)N=C(NCc2ccc(C)cc2)N1 [compound 59]
12.5 µg/mL | 50 µg/mL | 0.8 µg/mL | 1.6 µg/mL | CC(=O)O.CCCCCCCCCCCCNC1=NC(C)(C)N=C(NCC)N1 [compound 73]
50 µg/mL | 100 µg/mL | 0.4 µg/mL | 0.8 µg/mL | CCCCCCCCCCCNC1=NC(C)(C)N=C(NCc2ccccc2)N1.O=C(O)C(=O)O [compound 51]
100 µg/mL | >100 µg/mL | 0.8 µg/mL | 1.6 µg/mL | CC(=O)O.CCCCCCCCNC1=NC(C)(C)N=C(NCCCCCCCC)N1 [compound 66]
